Experimental data reported in patent publication US20250090554A1, “A METHOD OF TREATING DEPRESSION BY IMMUNE MODULATION” (MYND LIFE SCIENCES INC., priority 2021, published 2025).

Tests used:
[1] = test system: ABCF1; assay: ABCF1 real time RT-PCR in RAW macrophage cell line treated with drugs; assay type: cell-based, murine
Procedure: (§1) FIG. 1 illustrates that Escitalopram induces ABCF1 in a Macrophage cell line: RAW macrophages were plated at 1×10^5 cells/well and cultured for 2 days. The cells were incubated with 0.3 mM Escitalopram for 1 hour, and then harvested for total RNA, which was extracted for real time RT-PCR specific for ABCF1 and IL-4. CT values were normalized with CT value for the housekeeping gene from the DMSO control. The difference in the expression after drug treatment is consistent with polarization towards an M2-like phenotype (data were consistent in 3 separate experiments).
FIG. 2 illustrates the effect of psylocibin, psylocin and their analogs on ABCF1 transcription in a macrophage cell line. Briefly, the Macrophage cell line RAW264.7 (ATCC) were grown to 80% confluency in growth media (DMEM+10% FBS+glutamine). Dilutions of psylocibin, psylocin and their analogs were made at desired final concentrations for a Dose response experiment. The concentrations' used for this experiment are: 10 nM, 100 nM, 500 nM for Psilocin, Psylocibin, 4-Acetoxy-N, N-dimthyltryptamine, O-Acetyl Psilocin Fumerate, and 4-acetoxyindole. The cells were incubated for 2 hours and then harvested for total RNA, which was extracted for real time RT-PCR specific for ABCF1. Untreated cells were used as negative control and Escitalopram at 0.3 mM was used as a positive control to activate ABCF1 expression for all the experiments. ES=escitalopram; PSYB=Psylocibin; PSIC=Psilocin; DMT=4-Acetoxy-N, N-dimthyltryptamine; APF=O-Acetyl Psilocin Fumerate, and AOI=4-acetoxyindole.
• 1. Macrophage cell line RAW264.7 (ATCC) were grown to 80% confluency in growth media (DMEM+10% FBS+glutamine). • 2. Dilutions of the drugs were made at desired final concentrations for a Dose response experiment. The concentrations' used for this experiment are: 10 nM, 100 nM, 500 nM for Psilocin, Psylocibin, 4-Acetoxy-N, N-dimthyltryptamine, O-Acetyl Psilocin Fumerate, and 4-acetoxyindole. • 3. A time course response experiment was done for the above stated drugs at concentrations mentioned above (10 nM, 100 nM, 500 nM). The time points chosen were 0, 30 mins, 2 hours and 24 hour. • 4. Untreated cells were used as negative control and Escitalopram at 0.3 mM was used as a positive control to activate ABCF1 expression for all the experiments. Analysis by qPCR:
• 1. Post treatment with drugs at different time points, the reaction was stopped by removing the media with the drug. Cells were then collected and RNA was isolated from these. • 2. After checking the quality of the RNA, cDNA was generated and qPCR was run with ABCF1 primers as the target gene and GAPDH as the house keeping gene. • 3. Normalized against the expression level of GAPDH, the fold change expression level of ABCF1 was calculated and tabulated for all treatment conditions.

[2] = test system: IL-4; assay: IL-4 real time RT-PCR in RAW macrophages treated with Escitalopram; assay type: cell-based, murine; conditions: FIG. 1: 0.3 mM Escitalopram for 1 hour
Procedure: as §1

[3] = test system: ABCF1; assay: ABCF1 expression in bone marrow after in vivo drug treatment of mice; parameters: species or system mice (C57Bl/6); conditions: for ABCF1 expression levels increased in bone marrow (fold): 30 mins treatment in vivo
Procedure: • Species strain: C57Bl/6 • Tissues collected: Brain, Bone marrow, PBMC • Drug treatment: • a. 30 minutes Drug treatment (PBS control, Escitalopram 50 mg/kg, Psilocybin 25 mg/kg) • b. 30 minutes Drug treatment after 30 minutes LPS stimulation (PBS control, Escitalopram 50 mg/kg, O-Acetyl Psilocin Fumarate (APF) 25 mg/kg, 4-AcetoxyIndole (AOI) 2.5 mg/kg, 4-AcO-DET (AODET) 25 mg/kg) • Method: • Weighed and injected the drug into the mice by Intraperitoneal injection. • Euthanized the mice 30 minutes after injections with isoflurane and CO2 • Post cervical Dislocation performed cardiac puncture to collect the whole blood from mice. • Opened the cephalic bone to collect the whole brain. • Removed the skin and muscles, took out both femur and tibia for bone marrow collection. • Tissue process procedures: • Brain—flash frozen and stored hemisphere in-80 for further molecular experiments and sent another part with buffer for sequencing. The frozen Brains were Dounce-homogenized. […]

[4] = test system: ABCF1; assay: ABCF1 expression in whole brain after in vivo drug treatment of mice; parameters: species or system mice (C57Bl/6); conditions: Escitalopram 50 mg/kg, psilocybin 25 mg/kg, 30 minutes
[5] = test system: ABCF1; conditions: peripheral blood mononuclear cells of patients; cited from earlier work

Compound	ABCF1 expression levels increased (fold) ([1]; RAW264.7 cells, post 2 hr treatment with 100 nM)	ABCF1 expression in RAW macrophages cell cultures ([1]; Escitalopram 0.6 nM, Psilocybin 500 nM, 2 hrs, vs untreated control)	ABCF1 induction in a macrophage cell line ([1]; RAW macrophages, 0.3 mM Escitalopram, 1 hour)	ABCF1 induction (fold) in the macrophage cell line ([1]; RAW macrophages, FIG. 1: 0.3 mM Escitalopram for 1 hour)	IL-4 induction (fold) in the macrophage cell line [2]	ABCF1 expression in the bone marrow ([3]; Escitalopram 50 mg/kg, psilocybin 25 mg/kg, mice, 30 minutes)	ABCF1 expression levels increased in bone marrow (fold) [3]	ABCF1 expression in the whole brain [4]	ABCF1 transcription in PBMCs of patients responding to treatment [5]
CCCCCc1cc(O)c(C/C=C(\C)CCC=C(C)C)c(O)c1 [Cannabigerol]	8 folds								
CN(C)CCC[C@@]1(c2ccc(F)cc2)OCc2cc(C#N)ccc21 [Escitalopram]		induces ABCF1 expression	induces ABCF1	approximately 20 fold	approximately 5 fold	induces ABCF1 expression	6 folds	induce ABCF1 expression	increased the transcription
CN(C)CCc1c[nH]c2cccc(OP(=O)(O)O)c12 [Psilocybin, [3-(2-Dimethylaminoethyl)-1H-indol-4-yl] dihydrogen phosphate]							2 folds		
